US8536097B2, “4-(4-haloalkyl-3-thiobenzoyl)pyrazoles and use thereof as herbicides” (Bayer Cropscience AG, priority 2010, dated 2013)

Assays:
Type in all cases: in vivo
[1] = test system: Matricaria inodora; test: Post-emergence herbicidal action against weed plants; details: dose 80 g a.c./ha, scored after 3 to 4 weeks
Experimental: (§1) [table] 2. Post-Emergence Herbicidal Action Against Weed Plants Seeds of monocotyledonous and dicotyledonous weed plants are set out in cardboard pots in sandy loam soil, covered with soil, and cultivated under glass under good growth conditions. Two to three weeks after sowing, the trial plants are treated at the three-leaf stage. The compounds according to the invention, formulated as wettable powders or as emulsifiable concentrates, are sprayed onto the surface of the green parts of the plants, at a water application rate of 600 to 800 I/ha (converted). After the trial plants have stood for 3 to 4 weeks under optimum growth conditions under glass, the action of the compounds according to the invention is scored in comparison to compounds disclosed in the prior art.

[2] = test system: Avena fatua; test: Pre-emergence herbicidal action against weed plants; details: dose 80 g a.c./ha, scored after 3 to 4 weeks
Excerpt: (§2) Seeds or rhizome sections of mono- and dicotyledonous weed plants are set out in pots of 9 to 13 cm in diameter, in sandy loam soil, and are covered with soil. The herbicides, formulated as emulsifiable concentrates or dusts, are applied to the surface of the covering earth in the form of aqueous dispersions or suspensions or emulsions, at a water application rate of 300 to 800 I/ha (converted) in different doses. The pots are then maintained under glass under optimum conditions for the further cultivation of the plants. After 3 to 4 weeks under optimum growth conditions under glass, the trial plants are scored for the effect of the compounds according to the invention in comparison to compounds disclosed in the prior art. […] [table]

[3] = test system: Cyperus serotinus; test: as above; details: scored after 3 to 4 weeks
Excerpt: as §2

[4] = test system: Viola tricolor; test: as above; details: scored after 3 to 4 weeks
Excerpt: as §2

[5] = test system: Amaranthus retroflexus; test: Post-emergence herbicidal action against weed plants; details: dose 320 g a.c./ha, scored after 3 to 4 weeks
Experimental: as §1

[6] = test system: Viola tricolor; test: as above; details: dose 320 g a.c./ha, scored after 3 to 4 weeks
Experimental: as §1

[7] = test system: Alopecurus myosuroides; test: Pre-emergence herbicidal action against weed plants; details: dose 320 g a.c./ha, scored after 3 to 4 weeks
Excerpt: as §2

[8] = test system: Setaria viridis; test: Post-emergence herbicidal action against weed plants; details: dose 80 g a.c./ha, scored after 3 to 4 weeks
Experimental: as §1

SMILES: Cc1c(C(=O)c2cnn(C)c2O)ccc(C(F)(F)F)c1S(C)(=O)=O [1-4, known from WO 2008/125214]
- Herbicidal action against MATIN [1]: 50%

SMILES: Cc1c(C(=O)c2cnn(C)c2O)ccc(C(F)(F)F)c1[S+](C)[O-] (centres unmarked) [1-9, known from WO 2008/125214]
- Herbicidal action against AVEFA [2]: 40%
- Herbicidal action against CYPES ([3]; dose 80 g a.c./ha): 50%
- Herbicidal action against VIOTR ([4]; dose 80 g a.c./ha): 60%

SMILES: Cc1c(C(=O)c2cnn(C)c2O)ccc(C(F)(F)C(F)(F)F)c1[S+](C)[O-] (centres unmarked) [1-153]
- Herbicidal action against AVEFA [2]: 70%
- Herbicidal action against CYPES ([3]; dose 80 g a.c./ha): 100%
- Herbicidal action against VIOTR ([4]; dose 80 g a.c./ha): 90%

SMILES: Cc1c(C(=O)c2cnn(C)c2O)ccc(C(F)(F)C(F)(F)F)c1S(C)(=O)=O [1-161]
- Herbicidal action against MATIN [1]: 100%

SMILES: Cc1nn(C)c(O)c1C(=O)c1ccc(C(F)(F)F)c([S+](C)[O-])c1C (centres unmarked) [3-9, known from WO 2008/125214]
- Herbicidal action against VIOTR ([4]; dose 320 g a.c./ha): 40%
- Herbicidal action against AMARE [5]: 50%
- Herbicidal action against VIOTR [6]: 40%

SMILES: Cc1nn(C)c(O)c1C(=O)c1ccc(C(F)(F)F)c(S(C)(=O)=O)c1C [3-17, known from WO 2008/125214]
- Herbicidal action against ALOMY [7]: 50%
- Herbicidal action against CYPES ([3]; dose 320 g a.c./ha): 50%
- Herbicidal action against SETVI [8]: 60%

SMILES: Cc1nn(C)c(O)c1C(=O)c1ccc(C(F)(F)C(F)(F)F)c([S+](C)[O-])c1C (centres unmarked) [3-153]
- Herbicidal action against VIOTR ([4]; dose 320 g a.c./ha): 90%
- Herbicidal action against AMARE [5]: 80%
- Herbicidal action against VIOTR [6]: 80%

SMILES: Cc1nn(C)c(O)c1C(=O)c1ccc(C(F)(F)C(F)(F)F)c(S(C)(=O)=O)c1C [3-161]
- Herbicidal action against ALOMY [7]: 90%
- Herbicidal action against CYPES ([3]; dose 320 g a.c./ha): 80%
- Herbicidal action against SETVI [8]: 100%
